Assay results: patent US20070248590A1, “Modulators of CDC2-like kinases (CLKS) and methods of use thereof” (Sirtris Pharmaceuticals, Inc., priority 2005, published 2007)

Tests used:
HDAC = conditions: in vitro or in vivo, literature; cited from earlier work
[1] = tested on: insulin induction of CLK2 alternate splicing in FAO cells; experiment: CLK2 splicing analysis (RT-PCR with primers flanking exon 4) in FAO cells; assay type: cell-based, rat; conditions: 20 μM inhibitor pretreatment
Method: Splicing Analysis. Total RNA was isolated from FAO hepatocytes pre-treated with indicated inhibitor then Insulin for 2 hours. RT-PCR was performed using SuperScript One-Step RT-PCR with taq (Invitrogen) on 1 ug of total RNA using primers flanking exon 4 on Clk2 and Clk1.

[2] = tested on: diet-induced obese (DIO) C57BL/6 mice; experiment: IP dosing of TG003 in DIO mouse model; assay type: in vivo
Method: Specifically, 5 week old C57BL/6 mice (male 18-22 grams, Charles River Labs, Willmington, Mass.) are placed either on a high fat diet (Research Diets Inc., New Brunswick, N.J., 60% kcal fat Rodent Diet Cat#D12492) or regular chow. Mice are weighed once a week for 5 weeks, test baseline fed glucose, lactate, triglycerides and insulin. At approximately 6 weeks or when mean weight of the DIO groups reach 40 grams, dosing is initiated. TG003 was dosed via IP injection at either 30 or 100 mg/kg (TG003 suspended in 2% HPMC+0.2% DOSS as in previous example). Control DIO and chow fed animals were dosed with IP injection of vehicle alone. Once dosing starts data collections was as follows: Week 1 time point includes a fasted blood glucose measurement, Week 2 blood collection, Week 3 an IPGTT and Week 4 is an endpoint blood and tissue collection.
Mice are dosed at the same time daily. Body weights are taken 2 times a week once dosing starts. Baseline measurements of fed glucose, lactate, triglycerides and insulin are taken at time 0 (commencement of dosing).
Insulin Assay: Mouse insulin levels were measured using the Linco Rat/Mouse Insulin ELISA kit (Cat. #EZRMI-13K). 0 week, 2 week and 4 week blood insulin levels are shown in FIGS. 27A, 27B and 27C respectively for 100 mg/kg TG003 study. 0 week, 2 week and 4 week blood insulin levels are shown in FIGS. 31A, 31B and 31C respectively for 30 mg/kg TG003 study.
IPGTT: Mice are fasted for a minimum of 16 hrs. A glucose reading is taken at time Zero using a glucose meter. Mice are injected with 2 g/kg D-Glucose at one minute time points. A glucose reading is taken at 15, 30, 60, and 120 minutes (Medisense Precision Extra, Blood Glucose Meter, Abbott Cat# 70297-01).

[3] = tested on: gluconeogenic genes (PGC-1alpha targets) in FAO hepatocytes; experiment: Northern blot of PGC-1alpha target genes in FAO hepatocytes; assay type: cell-based, rat
Method: Northern Blot and RNA analysis. FAO hepatocytes were infected with indicated adenovirus overnight in RPMI+0.5% BSA. Cells were grown for 2 more days in RPMI+0.5% BSA. Cells were treated as indicated. Total RNA was isolated using Trizol (Invitrogen). Northern blots using indicated cDNAs were performed on 15 μg of total RNA. Quantitation of RNA was performed by exposing membranes to phosphor-imager screens and analyzed by a Bio-Rad Personal Imager FX and Quantity-One quantitation software (Bio-Rad).

[4] = tested on: PGC-1alpha and SIRT1 phosphorylation in H2.35 cells; experiment: Metabolic 32P PO4 labeling of H2.35 cells, insulin stimulated; assay type: cell-based, mouse; conditions: 30 minutes pretreatment, 40 minute insulin stimulation
Method: PGC-1alpha and SIRT1 phosphorylation in vivo is stimulated by insulin and blocked by LY and TG003 as determined by metabolic ^32P PO4 labeling of H2.35 cells infected with adenovirus Flag-Ha-PGC-1alpha or Flag-HA-SIRT1. Cells were infected for 24 hours low glucose DMEM 4% FBS then serum starved for 24 hours in low glucose DMEM 0.5% BSA. Media was then replaced with PO4 free DMEM 0.5% BSA for 30 minutes, and cells were then pretreated with LY or TG003 for 30 minutes before addition of 100 uCi ^32P PO4. Cells were incubated in ^32P PO4 for 20 minutes before a 40 minute insulin stimulation. Cells were then washed with ice-cold PBS, harvested and lysed. Flag-HA-PCC-1alpha and Flag-HA-SIRT1 were immunoprecipitated used anti-flag agarose (Sigma-Aldrich, Cat. #A4596). Immunoprecipitates were washed extensively and analyzed by SDS-PAGE, transferred to PVDF membrane where ^32P signal was analyzed by a Bio-Rad Phosphor-Imager (Bio-Rad Laboratories) (FIG. 20A) and normalized to protein quantitated by western blot using anti-flag antibodies by a Versa-Doc camera system and quantitation software (Bio-Rad Laboratories) (FIG. 20B).

[5] = tested on: CLK2 phosphorylation of Sirt1 in HEK 293 cells; experiment: Metabolic 32P labeling of Flag-HA-Sirt1 in transfected HEK 293 cells; assay type: cell-based, human; conditions: 40 uM TG003
Method: (§1) Cell Culture. HEK 293 Cells were cultured in DMEM+10% CCS. FAO Rat hepatocytes were grown in Hamm's F-12 media with 5% FBS. Prior to experiments or adenoviral infections media was switched to RPMI+0.5% BSA. H2.35 Mouse Hepatocytes were grown in DMEM (low glucose)+4% FBS and 2 μM Dexamethasome. Prior to experiments and infection, media was switched to DMEM (low glucose)+0.5% BSA. CLK inhibitor, TG003 (CalBiochem) was dissolved in DMSO.
(§2) Immunoprecipitation and Co-Immunoprecipitation. Cells were washed once with PBS containing Phosphatase inhibitors (5 mM Glycerol-2-phosphate, 20 mM NaF, and 0.2 mM Na OrthoVanadate), scraped into tubes, spun down, and lysed by 2× freeze-thaw cycles in 0.4% Triton, 100 mM NaCl, 20 mM KHepes pH 7.9, 1 mM EDTA, Phosphatase inhibitors, 1 mM PMSF, and 1× Protease Inhibitors (Roche). Immunoprecipitations were performed with M2 anti-flag agarose (sigma) or Anti-HA agarose (Roche) for 2 hours rotating at 4 degrees C. followed by 3 washes in lysis buffer. Products were resolved by SDS-PAGE and transferred to PVDF membranes for Western blot analysis.
Metabolic Labeling. HEK 293 were transfected as described above. […] Immunoprecipitates were resolved by SDS-PAGE and transferred to PVDF membrane, ^32PO4 was detected by exposing membrane to Phospho-imaging screen and followed by Western-Blot using anti-flag antibodies (M2, Sigma).

[6] = tested on: total phosphorylation of PGC-1alpha and Sirt1 in FAO cells; experiment: Metabolic 32P labeling of PGC-1alpha and Sirt1 in FAO hepatocytes; assay type: cell-based, rat; conditions: 40 μM TG003
Method: as §1
Metabolic Labeling. HEK 293 were transfected as described above. The next morning cells were switched to DMEM without PO4+10% CCS for 30 minutes, cells were then treated with or without TG003 for 30 minutes then 200 μCi of ^32PO4 was added for 2 hours. Cells were harvested and immunoprecipitation was performed as described above. Immunoprecipitates were resolved by SDS-PAGE and transferred to PVDF membrane, ^32PO4 was detected by exposing membrane to Phospho-imaging screen and followed by Western-Blot using anti-flag antibodies (M2, Sigma).
FAO Hepatocytes were infected with adenovirus as indicated in the figures for 2 days in RPMI+0.5% BSA. Metabolic labeling was performed as described above, except cells were incubated in ^32PO4 for 4 hours.

[7] = tested on: CLK2 interaction with Sirt1 in HEK 293 cells; experiment: Co-immunoprecipitation of endogenous Sirt1 with Flag-CLK2 in HEK 293 cells; assay type: cell-based; conditions: HEK 293 cells transfected with Flag-CLK2
Method: as §2

[8] = tested on: PEPCK mRNA expression in FAO hepatocytes; experiment: Pepck mRNA by Q-RT-PCR in FAO hepatocytes; assay type: cell-based, rat; conditions: 20 uM TG003 for 7 hours
Method: (§3) Cells were grown in F-12+5% FBS then switched to 10% FBS and treated with or without 20 uM TG003 for 7 hours. Total RNA was isolated using Trizol (Invitrogen, Cat. # 15596-026) and reverse transcribed using oligo dT and super script II (Inivtrogen, Cat. # 18064-014). Pepck mRNA was measured by Q-RT-PCR relative to 36B4 control mRNA. Each bar is average+/−stdev N=3.
as §3, with “serum starved O/N and” for “grown in F-12+5% FBS”, “then” for “then switched to 10% FBS and”, “200 nM Insulin” for “20 uM TG003”, “2” for “7”

[9] = tested on: diet-induced obese (DIO) C57BL/6 mice; experiment: Oral dosing of TG003 in DIO mouse model; assay type: in vivo
Method: Twenty 9 week old C57BL/6 mice were placed on 60% kcal % fat diet (high fat diet with 60% of calories from fat; Research Diets, Inc., New Brunswick, N.J. Cat. No. D12492) and 15 mice were placed on regular chow. Mice were weighed once a week for 5 weeks, baseline fed glucose, triglycerides and insulin was measured. At approximately 6 weeks on the high fat diet, or when the average body weight of the DIO mice becomes 40 grams, dosing began at various doses and preparations. Mice were dosed daily with either vehicle (2% HPMC+0.2% DOSS) or with TG003 suspended in vehicle and dosed via oral gavage at 100 mg/kg (10 animals each in DIO group; 9 animals in vehicle chow group and 6 animals in TG003 chow group). The study was divided into DIO groups with mean average body weight/cage. Chow fed groups were also sorted by mean average body weight/cage. Body weights were measured once weekly to adjust dosing concentrations for body weight.
Baseline blood on all mice for glucose, triglycerides, insulin, etc. was taken following a one hour food withdrawal. Once dosing started, data collections were as follows: Week 1 time point included fasted blood glucose and body temps for select groups, Week 2 was a fed blood collection, Week 3 fasted blood glucose, Week 4 body temps on select groups and endpoint blood and tissue collection. Body temperature of select groups post dosing on week 1 and week 4 was also taken. Concentration of TG003 compound is adjusted to proper dose according to the mean weight for each group weekly. Final blood collection of all groups was taken 1 hour after dosing in order to determine levels of drug in blood compared to original PK. Mice were not dosed on the day of week 2 blood collections. Mice are typically dosed in the a.m. and only dosed in the p.m. on a day following a 16 hr fast. A test for Free Fatty Acids is done with the plasma final blood collection and with final plasma collection. Assays were done as described above for TG003 IP dosing example.

[10] = tested on: CLK2 repression of PGC-1alpha coactivation of HNF4alpha; experiment: gAF1-luciferase (HNF4alpha response element) reporter assay in HEK 293 cells; assay type: cell-based, human; conditions: 20 μM TG003
Method: Transient Transfections. HEK 293 were transfected using PolyFect (Qiagen). 25 ng of reporter (gAF1-Luciferase) and 25 ng of pcDNA mouse HNF4-alpha were transfected with pcDNA mouse PGC-1 alpha and pcDNA Flag-CLK2. Equal amounts of total DNA were used for all transfections by adding appropriate amounts of empty vector pcDNA. TG003 (Calbiochem) was added 4 hours after transfection and cells were harvested the next morning. The data presented is the average of 3 replicates from a single experiment, all luciferase experiments were performed at least 3 times with similar results.

[11] = systemic intraperitoneal delivery, DIO mice, 30 or 100 mg/kg
[12] = FAO hepatocytes overexpressing PGC-1alpha, increasing amounts of TG003

Compound: O=C(/C=C/c1cccc(C(=O)NO)c1)NO [CBHA, m-carboxy-cinnamic acid bishydroxamic acid]
- inhibition of HDAC (HDAC): micromolar concentration or lower

Compound: CCN1/C(=C/C(C)=O)Sc2ccc(OC)cc21 [TG003, (Z)-1-(3-ethyl-5-methoxy-2,3-dihydrobenzothiazol-2-ylidene) propan-2-one]
- insulin induction of CLK2 alternate splicing (truncated transcript) [1]: blocks
- drug remaining at injection site upon sacrifice ([2]; IP dosing, multiple injections): observed in the intraperitoneal cavity
- blood glucose levels [2, 11]: decrease
- blood insulin levels [2, 11]: decrease
- body weight [2, 11]: decrease
- induction of G6Pase [3, 12]: seen in a dose dependent manner
- induction of Pepck [3, 12]: seen in a dose dependent manner
- CLK2 repression of PGC-1alpha induction of gluconeogenic genes (G6Pase, Pepck) ([3]; FAO hepatocytes, 40 μM TG003 for 1 hour then Fsk+Dex): rescued
- insulin-stimulated PGC-1alpha phosphorylation [4]: blocked
- insulin-stimulated SIRT1 phosphorylation [4]: blocked
- incorporation of 32phosphate into Flag-HA-Sirt1 WT [5]: noticeably decreased
- shift in Sirt1 mobility caused by overexpression of CLK2 [5]: abrogated
- total phosphorylation of PGC-1alpha (32phosphate relative to protein levels) [6]: decreased
- total phosphorylation of Sirt1 (32phosphate relative to protein levels) [6]: decreased
- mobility of Sirt1 co-immunoprecipitated with CLK2 [7]: shifted to a band with faster mobility
- Pepck mRNA relative to 36B4 [8]: induction
- in vivo effect on body weight seen with IP dosing ([9]; 100 mg/kg oral dosing): did not repeat
- fed insulin ([9]; 100 mg/kg oral vs vehicle, 2 week, DIO or chow groups): not much of an effect
- fed blood glucose ([9]; 100 mg/kg oral vs vehicle, 4 week, DIO or chow groups): not much of an effect
- body temperature ([9]; DIO animals, 100 mg/kg oral, 1 week of dosing): significant drop
- drop in body temperature ([9]; DIO animals, 100 mg/kg oral, 4 weeks of dosing): > 2 degree
- body temperature ([9]; chow fed group, 100 mg/kg oral): no significant effect
- CLK2 repression of PGC-1 alpha (luciferase activity) [10]: partially rescues

Compound: trichostatin A [TSA]
- inhibition of HDAC (HDAC): potent inhibitor

Compound: C/C=C1\NC(=O)[C@H]2CSSCC/C=C/[C@H](CC(=O)N[C@H](C(C)C)C(=O)N2)OC(=O)[C@H](C(C)C)NC1=O [Depsipeptide]
- inhibition of HDAC (HDAC): micromolar concentrations

Compound: depudecin
- inhibition of HDAC (HDAC): micromolar concentrations

Compound: O=c1cc(N2CCOCC2)oc2c(-c3ccccc3)cccc12 [LY]
- insulin induction of CLK2 alternate splicing (truncated transcript) [1]: blocks
- insulin-stimulated PGC-1alpha phosphorylation [4]: blocked
- insulin-stimulated SIRT1 phosphorylation [4]: blocked
